Laboratory results taken from patent US20120028917A1, “Use Of N-(4-((3-(2-Amino-4-Pyrimidinyl)-2-Pyridinyl)Oxy)Phenyl)-4-(4-Methyl-2-Thienyl)-1-Phthalazinamine In The Treatment Of Antimitotic Agent Resistant Cancer” (Amgen Inc., priority 2009, published 2012).
Like-named read-outs stand apart in the source and are kept apart here.

Assays:
HCT116 parental = assay: ≧4N DNA content assay (FIG. 6-A); type: cell-based; details: Homo sapiens, HCT-116, 24 hours, read-out: cellular ≧4N DNA content EC50
Procedure: (§1) Tumor cells were treated with AMG 900, AZD1152, MK-0457, or PHA-739358 (range concentration varied based on potency) for 24 hours and processed for cell-cycle analysis (DNA staining only) as previously described (1). Cells were analyzed on a LSRII flow cytometer using BD FACS Diva software. The concentration-response curves and corresponding EC50 values were calculated using the percentage of cells with ≧4N DNA content versus the DMSO control.
HCT116 cell lines were treated with increasing concentrations of AMG 900 or AZD1152 for 24 hours. Flow cytometry was used to assess the accumulation of cells with ≧4N DNA content expressed as a percentage of the DMSO-treated control (POC). The concentration-response curves and calculated EC50 values were determined from two independent experiments (bars, ±SD).

MCF-7 = assay: Cellular EC50, additional cell lines (Table 6-B); type: cell-based, human; details: Homo sapiens, MCF7; MCF-7, Breast
Procedure: (§2) All high-content cell assays were performed on an ArrayScan VTi HCS Reader (Cellomics). Tumor cell lines were treated with AMG 900, AZD1152, MK-0457, or PHA-739358 (concentration range varied based on potency). The cells were prepared for intracellular staining with an anti-p-histone H3 Ser^10 antibody as previously described (1). Detection was performed with an anti-rabbit IgG-alexa-568 antibody and DAPI. The cellular levels of p-histone H3 were analyzed using Target Activation V2 algorithm (Cellomics) to determine the percentage of positive cells. For the imaging assays, the concentration-response curves and corresponding IC50 and EC50 values were calculated using the percentage of cells affected versus the DMSO control.
as §1

HCT15 = assay: Cellular EC50, additional cell lines (Table 6-B); type: cell-based, human; details: Homo sapiens, HCT-15, Colon, P-gp+
Procedure: as §2, §1

RPMI8226 = assay: ≧4N DNA content assay (flow cytometry); type: cell-based, human; details: Homo sapiens
Procedure: as §1

U226-B1 = assay: ≧4N DNA content assay (flow cytometry); type: cell-based, human; details: Homo sapiens; U226-B1, BCRP −; 24 hours
Procedure: as §1

NCI-H460-Taxol-r = assay: Cell cycle DNA content assay (flow cytometry); type: cell-based; details: Homo sapiens, 24 h, Lung, Paclitaxel-selected, read-out: EC50 @ 24 hours, ≧4N DNA content
Procedure: (§3) NCI-H460 parental and NCI-H460 taxol-resistant cells were seeded at a density of 500,000 cells/well in a 6-well plate in 2 mL of appropriate complete media. The next day cells were treated with AMG 900 or taxol over a 6-point concentration range with a final DMSO concentration of 0.05% in media. After 24 hours, cells were pulsed with BrdU (1:100 dilution) and harvested. Cells were centrifuged at 1600 rpm for 4 minutes and the supernatant was aspirated. Cells were washed in 1× PBS and fixed in 900 μL of ice cold 90% methanol and stored at −20° C. Fixed cells were centrifuged at 2000 rpm for 4 minutes to remove 90% methanol. Cells were washed with 200 μL of wash buffer and stained with 200 μL of propidium iodide (PI) overnight at 4° C. in the dark. Data was acquired and analyzed by flow cytomety (LSRII). A threshold gate was applied according to +4N (same as ≧4N) DNA content and SubG1 positive populations based on DMSO-treated control and low/high drug-treated groups. The data was represented as a percentage of +4N DNA and SubG1 positive subpopulations. The +4N (same as ≧4N) DNA content or SubG1 cellular EC50 values were calculated using a 4-parameter equation. Lung tumor cell lines were treated with control (DMSO), AMG 900 or taxol over a 6-point dose range for 24 hours. Flow cytometric-based cell cycle analysis was performed to measure the percentage of ≧4N DNA content or SubG1 DNA content positive cells. The dose-response curves for AMG 900 represent the drug concentration plotted against the percentage of ≧4N DNA content positive cells. The dose-response curves for taxol represent the drug concentration plotted against the percentage of SubG1 DNA content positive cells. The EC50 values were calculated by 4-parameter fit model.

NCI-H460 = assay: Cell cycle DNA content assay (flow cytometry); type: cell-based; details: Homo sapiens, 24 h; NCI-H460, Lung, Parent line; read-out: EC50 @ 24 hours, ≧4N DNA content
Procedure: as §3

MDA-MB-231 parental = assay: p-histone H3 fluorescence-based cell imaging assay; design: species or system human; details: Homo sapiens, P-gp −
Procedure: as §2

[1] = test system: MES-SA-Dx5 doxorubicin resistant; assay: p-histone H3 fluorescence-based cell imaging assay; design: species or system human; details: Homo sapiens
Procedure: as §2

MES-SA parental = assay: p-histone H3 fluorescence-based cell imaging assay; design: species or system human; details: Homo sapiens, P-gp −
Procedure: as §2

## Cc1csc(-c2nnc(Nc3ccc(Oc4ncccc4-c4ccnc(N)n4)cc3)c3ccccc23)c1 [AMG 900, N-(4-((3-(2-amino-4-pyrimidinyl)-2-pyridinyl)oxy)phenyl)-4-(4-methyl-2-thienyl)-1-phthalazinamine]
HCT116 parental
  EC50: 2 nM
MCF-7
  EC50: 1 nM
HCT15
  EC50: 2 nM
RPMI8226; RPMI-8226, RPMI8226, BCRP +, 24 hours, read-out: ≧4N DNA Content assay, EC50 value
  EC50: 3 nM
RPMI8226; RPMI-8226**, Multiple Myeloma, P-gp− and/or BCRP+, read-out: Cellular EC50
  EC50: 3 nM
U226-B1
  EC50: 2 nM
NCI-H460-Taxol-r
  EC50: 1 nM
NCI-H460
  EC50: 1 nM
MDA-MB-231 parental
  IC50: 2 nM
[1]; MES-SA Dx5*, Uterine, P-gp+, read-out: Cellular EC50
  EC50: 2 nM
[1]; MES-SA-Dx5 doxorubicin resistant, P-gp +
  IC50: 2 nM
MES-SA parental
  IC50: 3 nM
